Assay results reported in US12465618B2, “Compositions and methods for degenerative disc regeneration” (University Health Network, priority 2015, dated 2025).

Experiments:
Type in all cases: cell-based
[1] = tested on: human degenerative disc NP cells; experiment: qRT-PCR with gene specific primers; details: human degenerated disc NP cells, real time PCR
Description: Total RNA from healthy and treated (IL-1β alone or in combination with TNFα) rat NP cells, were isolated using RNAeasy extraction kit (Cat #74134, Qiagen) and quantified using a Nanodrop spectrophotometer. Total RNA (˜400 ng) was reverse-transcribed using RT^2 First Strand Kit (Cat #330401, Qiagen) following the manufacturer's instructions for preparing cDNA. To evaluate the effect of IL-1β alone or in combination with TNFα on extra-cellular matrix (ECM) genes in rat NP cells, the RT^2 Profiler™ PCR Array Rat Extracellular Matrix & Adhesion Molecules (PARN-013Z, Qiagen) was used and compared with no treatment controls (NTC) in 3 independent experiments using real time PCR performed on ABI 7900HT 384-well Fast block machine. Data analysis including calculation of ΔΔCt values, fold changes and p-values was carried out using software available online (https://www.qiagen.com/ca). Total RNA was isolated from human degenerative disc NP cells (H1/H2) treated with CTGF, TGFβ1, CTGF+TGFβ1 to evaluate their effect on collagen 2, HAPLN1, versican and thrombospondin 1 using gene specific primers. Similarly, RNA was isolated from human NP cells were treated with […] alone or in combination TNFα in presence of CTGF and TGFβ1 to determine their effect on Cox2 and MMP-13 expression using qRT-PCR.

[2] = tested on: human degenerative disc NP cells; experiment: Western blotting of human degenerative disc NP cells; details: within 24 hrs
Description: (§1) After euthanasia, healthy rat lumbar/caudal spine IVDs, injured tail discs and bovine caudal IVD NPs were removed aseptically and the nucleus pulposus (NP) was removed separately and enzymatically digested according to methods established by the present inventors^16. Similarly, human degenerative disc NPs were enzymatically digested using Pronase (0.4%, 1 hr at 37° C.) followed by Collagenase II treatment (0.015%, O/N, 37° C.). The following day, the cells were filtered with a 70p cell strainer and cultured within a hypoxic incubator (NuAire, MN, USA) in 3.5% O2, 5% CO2, in Advanced Dulbecco's modified Eagle's medium (ADMEM) supplemented with 8% fetal bovine serum (FBS) and penicillin and streptomycin (100 U/mL). For treatments, the cells were either cultured in serum free ADMEM (no treatment controls) or treated with interleukin-1β (IL-1β, 10 ng/mL), tumor necrosis factor-alpha (TNFα, 50 ng/mL), connective tissue growth factor (CTGF, 10-100 ng/mL), Wnt-inducible soluble protein 2 (WISP2, 10-100 ng/mL) or transforming growth factor beta 1 (TGFβ1, 5-20 ng/mL) for various time points under hypoxic conditions.
(§2) Equal amounts of whole cell or tissue lysates prepared using RIPA lysis buffer were subjected to Western blotting as described earlier^18,19. Total lysates (30 μg) were resolved on 10% sodium dodecyl sulphate-polyacrylamide gels (SDS-PAGE) under reducing conditions and then proteins were electro-transferred onto polyvinyledendifluoride (PVDF) membranes (BioRad, CA). After blocking with 5% non-fat powdered milk in Tris-buffered saline (TBS, 0.1 M, pH=7.4), blots were incubated with rabbit or goat polyclonal/mouse monoclonal primary antibodies at 4° C. overnight. […] Blots were washed three times with TTBS for 15 minutes and protein bands were detected by the enhanced chemiluminescence method (BioRad, CA) on Kodak Hyperfilm.

rat NP cells = experiment: Western blotting of rat NP cells treated with IL-1β/TNFα with or without inhibitors or growth factors; details: rat-tail NP cells treated with IL-1β and TNFα, Western blot, FIG. 5g-5h
Description: as §1, §2

TGFβ1: Human recombinant transforming growth factor beta 1, Peprotech cat #100-21, identified in NCCM
mRNA levels of collagen 2, HAPLN1, versican and thrombospondin1 (THBS1) [1]: Increased mRNA levels | collagen 2 expression (Western blotting) [2]: increase | expression of MMP-3, MMP-13 and Cox2 proteins in presence of growth factor (rat NP cells): reduced expression
